From patent US8895574B2, “Benzyloxypyrimidine derivative, agricultural/ horticultural insecticide comprising derivative and method for using same” (Nihon Nohyaku Co., Ltd., priority 2010, dated 2014)

Tested on: cattle tick (Haemaphysalis longicornis)
Assay: Acaricidal effect on cattle tick, absorbent cotton in glass bottle
Type: in vivo
Settings: 96 h, 100 ppm drug solution, 2 ml, 4 days after inoculation, read-out: acaricidal effect against cattle tick (corrected mortality, judged by criterion)
Protocol: Acaricidal Effect on Cattle Tick (Haemaphysalis longicornis)
An absorbent cotton was placed on the basement of a glass bottle (diameter 3 cm×height 4.5 cm). The pyrimidine derivative of the present invention represented by the formula (I) or a salt thereof was dispersed in water to give a diluted drug solution (100 ppm). The drug solution (2 ml) was added dropwise. Cattle ticks were inoculated by 5 each, and the bottle was capped with a mesh. After 4 days from the inoculation, the dead ticks and live ticks were counted, and the corrected mortality was calculated by the following formula. corrected mortality (%)=(survival rate in untreated group−survival rate in treated group)/(survival rate in untreated group)×100 Diagnostic criteria . . . as defined in Experimental Example 1

COc1cncnc1OCc1ccc(C(C)(C)C)cc1 [1-1, 4-(4-t-butylbenzyloxy)-5-methoxypyrimidine]
mortality at 100 ppm: 50 to 79%
